Experimental data as given in publication PMC12434536, “Radiosynthesis and Preclinical Evaluation of a Carbon-11 Labeled Phosphodiesterase 7 Inhibitor for PET Neuroimaging” (ACS Medicinal Chemistry Letters, 2025).
Like-named read-outs stand apart in the source and are kept apart here.

How the values were obtained:
[1] = Pharmacokinetics in plasma and brain (NeuroPK study); assay type: in vivo, Sprague-Dawley rats
Method: Pharmacokinetics in Plasma and Brain (NeuroPK study)
Nine male wildtype Sprague Dawley rats were administered a bolus injection containing compound 27 in saline (1 mg/kg, 2 mL/kg) via the tail vein. Blood samples (approximately 120 µL) were harvested under light isoflurane anesthesia from a set of three rats at 0.08, 0.25, and 1 hr. Blood and brain samples were collected at 5, […] and 60 min. Following centrifugation of blood samples, the resulting plasma supernatant was stored at -70 ± 10 °C till further analysis. Brain samples were homogenized using ice-cold phosphate buffer saline (pH 7.4) and homogenates were stored below -70 ± 10 °C until further analysis. Total homogenate volume was three times the brain weight. Plasma and brain samples were quantified by LC-MS/MS method. The plasma and brain concentration-time data of compound 27 was used for pharmacokinetic analysis. […]

[2] = target: T1, HEK293-PDE7B recombinant cell lines (Homo sapiens, UniProt Q9NP56); assay: In vitro cell uptake and blocking of [11C]27; assay type: cell-based; conditions: blocker 1 μM, 60 min incubation, PDE7B overexpressing HEK293 cells, n = 4
T1 construct: host or cells: HEK293
T1 sequence (Q9NP56 whole entry): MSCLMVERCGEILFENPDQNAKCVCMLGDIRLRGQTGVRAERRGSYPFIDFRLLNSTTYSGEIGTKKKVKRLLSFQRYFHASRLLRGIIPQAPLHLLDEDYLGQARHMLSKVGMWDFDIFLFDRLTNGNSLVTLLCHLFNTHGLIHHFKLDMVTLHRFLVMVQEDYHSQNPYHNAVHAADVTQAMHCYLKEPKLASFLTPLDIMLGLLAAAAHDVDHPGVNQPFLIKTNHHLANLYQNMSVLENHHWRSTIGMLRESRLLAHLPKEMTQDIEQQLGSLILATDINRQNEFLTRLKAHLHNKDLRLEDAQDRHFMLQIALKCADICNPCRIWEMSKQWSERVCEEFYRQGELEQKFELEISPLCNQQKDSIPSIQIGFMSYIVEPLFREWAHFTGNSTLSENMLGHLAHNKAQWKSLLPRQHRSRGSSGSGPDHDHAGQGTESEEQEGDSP
Method: Control study: HEK293-PDE7B Recombinant cells (catalog#60412, BPS Bioscience) and HEK293 control cells (catalog# CRL-1573, ATCC) – both in logarithmic growth phase – were plated in a 24 well plate (2 × 10^5 cells per well) and cultured overnight. After 24 hr, each well was added 2 μCi of [ 11C]27, and incubated at 37 °C for 30 min or 60 min. The radioactive medium was aspirated and collected in a tube. The residual cells were washed twice with PBS, and then collected in the same tube. The cells were lysed with 1 N NaOH (200 μL) and washed twice with PBS, all the resulting solutions were collected in one tube.
The radioactivity in the collected supernatant and cell lysis buffer (600 μL/tube) was measured using a Cobra Model 5002/5003 gamma counter, respectively.
Blocking study: HEK293-PDE7B cells in logarithmic growth phase were plated in 24 well plate (2 × 10^5 cells per well) and cultured overnight. After 24 h, each well was added 2 μCi of [11C]27 with or without unlabeled reference compound 27 or BRL50481, respectively. The resulting culture medium contained 2 μCi of [ 11C]27, 1 µM of unlabeled compound 27 or BRL50481, and 5% DMSO. Cells were incubated at 37 °C for 60 min and samples were collected as described for the control study. The cell uptake was calculated according to the following eq.: cell uptake% = A lysis buffer/(A lysis buffer+Asupernate) (n = 4)

CYP1A2 = target: T2, CYP1A2 (Homo sapiens, UniProt P05177); assay: CYP450 isoform inhibition profiling, CYP1A2; assay type: in vitro ADME
T2 sequence (P05177 1-516): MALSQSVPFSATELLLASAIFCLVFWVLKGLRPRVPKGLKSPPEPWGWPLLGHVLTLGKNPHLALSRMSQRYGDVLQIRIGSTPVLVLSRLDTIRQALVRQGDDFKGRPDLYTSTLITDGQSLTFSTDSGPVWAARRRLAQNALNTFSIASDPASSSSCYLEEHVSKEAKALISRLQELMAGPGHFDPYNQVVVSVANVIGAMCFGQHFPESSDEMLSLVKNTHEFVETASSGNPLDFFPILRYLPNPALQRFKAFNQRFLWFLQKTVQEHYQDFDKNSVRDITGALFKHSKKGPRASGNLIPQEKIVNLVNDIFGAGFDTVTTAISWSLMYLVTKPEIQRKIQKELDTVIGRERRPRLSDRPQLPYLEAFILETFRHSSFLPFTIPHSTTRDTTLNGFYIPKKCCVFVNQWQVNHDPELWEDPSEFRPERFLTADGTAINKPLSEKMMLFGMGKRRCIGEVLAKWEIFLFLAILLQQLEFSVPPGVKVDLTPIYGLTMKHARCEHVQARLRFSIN
Method: page 5: protein-ligand complex were saved and were then loaded into Schrödinger Maestro to generate the ligand interaction plot. In vitro inhibitory assay to PDE7 of compound 27 and selectivity to other PDEs Functional activity of target compound 27 for inhibition of PDE7A activity and the selectivity over other PDE isozymes ([…], and 10A) were evaluated by Eurofins Panlabs Discovery Services and Reaction Biology Corp., respectively. Human recombinant enzymes were used for the assays. The inhibitory assays were performed and calculated in duplicate at 3 μM. If the inhibition percentage was less […] duplicate. CYP450 isoform metabolism and in vitro safety profiling The inhibitory constant of compound 26 toward cytochrome P450-dependent metabolic pathways was determined for individual CYP isoform (CYP1A2, CYP2C9, CYP2C19, CYP2D6, and CYP3A4). Reference inhibitors were included as positive controls. A 10 μM solution of compound 27 was used for initial screening. If the inhibition percentage was less than 50%, the experiment was stopped. […] gradient concentrations of compound 27 were used for IC 50 determination. The P450 reactions were detected at Ext/Em: 405 nm/460 nm (530 nm/605 nm for CYP2C9) in a S3 page 6: […] IC50 curves were plotted using a non-linear regression model with Graphpad Prism 6. […] Plasma and brain samples were quantified by LC-MS/MS method. […]

hERG channel = hERG channel (Homo sapiens, UniProt Q12809); assay: In vitro safety: hERG channel inhibition; assay type: biochemical
Chain of hERG channel (Q12809 whole entry): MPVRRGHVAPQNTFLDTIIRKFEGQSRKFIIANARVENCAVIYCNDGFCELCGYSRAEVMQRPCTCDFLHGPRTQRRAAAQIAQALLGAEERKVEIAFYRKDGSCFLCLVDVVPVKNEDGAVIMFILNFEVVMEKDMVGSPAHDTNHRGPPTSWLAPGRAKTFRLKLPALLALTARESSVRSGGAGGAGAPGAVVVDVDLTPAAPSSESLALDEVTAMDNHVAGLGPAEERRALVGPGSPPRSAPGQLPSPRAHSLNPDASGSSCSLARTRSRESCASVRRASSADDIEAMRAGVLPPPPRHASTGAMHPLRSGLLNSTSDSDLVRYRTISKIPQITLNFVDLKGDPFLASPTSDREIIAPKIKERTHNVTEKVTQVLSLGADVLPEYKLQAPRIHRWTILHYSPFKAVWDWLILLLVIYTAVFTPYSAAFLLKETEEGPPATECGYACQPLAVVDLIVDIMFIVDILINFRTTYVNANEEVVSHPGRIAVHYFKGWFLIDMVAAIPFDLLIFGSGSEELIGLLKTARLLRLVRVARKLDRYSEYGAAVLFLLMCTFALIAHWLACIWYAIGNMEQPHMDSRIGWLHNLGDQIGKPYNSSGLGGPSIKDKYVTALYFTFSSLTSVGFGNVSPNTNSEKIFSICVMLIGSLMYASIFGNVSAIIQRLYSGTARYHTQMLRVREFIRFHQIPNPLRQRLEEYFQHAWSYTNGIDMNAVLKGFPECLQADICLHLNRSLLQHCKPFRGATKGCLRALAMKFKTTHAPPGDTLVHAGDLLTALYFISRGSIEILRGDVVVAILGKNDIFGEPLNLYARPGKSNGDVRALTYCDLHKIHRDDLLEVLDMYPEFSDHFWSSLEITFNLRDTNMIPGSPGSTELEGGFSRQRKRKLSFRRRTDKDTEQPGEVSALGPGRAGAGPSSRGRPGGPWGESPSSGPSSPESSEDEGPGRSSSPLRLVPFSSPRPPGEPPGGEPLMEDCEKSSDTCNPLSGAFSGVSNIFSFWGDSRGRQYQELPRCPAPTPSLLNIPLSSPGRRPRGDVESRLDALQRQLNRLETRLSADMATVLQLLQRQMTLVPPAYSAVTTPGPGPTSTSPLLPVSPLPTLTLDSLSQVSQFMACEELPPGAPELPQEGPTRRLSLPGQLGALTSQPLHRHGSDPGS
Method: time-dependent manner for 80 min with an acquisition interval of 2 min. IC50 curves were
plotted using a non-linear regression model with Graphpad Prism 6. The latter method was
further applied to assess the inhibitory constant of compound 27 to the hERG channel. […]

[3] = 5 min, single iv 1 mg/kg, male Sprague-Dawley rats, n = 3, 1 mg/kg

In the case of COc1ccc(Cl)c2c1C1(CCCCC1)NC(=O)N2 [Compound 27], the brain concentration mean [1, 3] is reported as 3316.17 ng/g, the plasma concentration mean [1, 3] is reported as 712.49 ng/mL and the plasma concentration mean ([1]; 60 min, single iv 1 mg/kg, male Sprague-Dawley rats, n = 3, 1 mg/kg) is reported as 39.39 ng/mL. The “brain-to-plasma ratios (Kp)” value ([1]; all measured time points (5-60 min), SD rats, 1 mg/kg iv, 1 mg/kg) was > 3, the “fraction of the compound remaining in the brain” value ([1]; last measured time point (60 min), relative to 5 min peak, rats) was “less than 5%” and the Kp at 5 min ([1]; male, Sprague-Dawley, rat, brain, iv, 1 mg/kg, 5 min, single iv 1 mg/kg, male Sprague-Dawley rats, n = 3, read-out: Kp (brain-to-plasma ratio) mean) was 4.76. For the same compound, the Kp at 25 min ([1]; male, Sprague-Dawley, rat, brain, iv, 1 mg/kg, 25 min, single iv 1 mg/kg, male Sprague-Dawley rats, n = 3, read-out: Kp (brain-to-plasma ratio) mean) was 4, the Kp at 1 h ([1]; male, Sprague-Dawley, rat, brain, iv, 1 mg/kg, 60 min, single iv 1 mg/kg, male Sprague-Dawley rats, n = 3, read-out: Kp (brain-to-plasma ratio) mean) was 3.35 and the Kp ([1]; male, Sprague-Dawley, rat, brain, iv, 1 mg/kg, all measured time points (5-60 min), SD rats, 1 mg/kg iv, read-out: brain-to-plasma ratios (Kp)) was 3 to 5. For the same compound, the concentration at 5 min ([1]; rat, brain, 5 min, single iv 1 mg/kg, male Sprague-Dawley rats, n = 3, read-out: brain concentration mean) was 3320 ± 378 ng/g, the concentration at 25 min ([1]; rat, brain, 25 min, single iv 1 mg/kg, male Sprague-Dawley rats, n = 3, read-out: brain concentration mean) was 876 ng/g and the concentration at 60 min ([1]; rat, brain, 60 min, single iv 1 mg/kg, male Sprague-Dawley rats, n = 3, read-out: brain concentration mean) was 132 ng/g. For the same compound, the concentration at 5 min ([1]; rat, plasma, 5 min, single iv 1 mg/kg, male Sprague-Dawley rats, n = 3, read-out: plasma concentration mean) was 712 ± 153 ng/mL, the concentration at 25 min ([1]; rat, plasma, 25 min, single iv 1 mg/kg, male Sprague-Dawley rats, n = 3, read-out: plasma concentration mean) was 229 ng/mL and the concentration at 60 min ([1]; rat, plasma, 60 min, single iv 1 mg/kg, male Sprague-Dawley rats, n = 3, read-out: plasma concentration mean) was 39.4 ± 4.44 ng/mL. The “blockade of [11C]27 cell uptake” value [2] was “ca. 90%”, the IC50 (CYP1A2) was 4.4 µM and the IC50 (hERG channel) was > 100 µM.
